The results in this text go back to patent US10787462B2, “Heterocyclic compound” (TAKEDA PHARMACEUTICAL COMPANY LIMITED, priority 2015, dated 2020).

Structures are written as SMILES.

In one assay the target is T1, human RIPK1 (1-375) (Homo sapiens, UniProt Q13546).
T1 construct: human RIPK1 (1-375) gene; GST; made in house; host or cells: Sf-9 insect cells
T1 sequence (Q13546 1-375): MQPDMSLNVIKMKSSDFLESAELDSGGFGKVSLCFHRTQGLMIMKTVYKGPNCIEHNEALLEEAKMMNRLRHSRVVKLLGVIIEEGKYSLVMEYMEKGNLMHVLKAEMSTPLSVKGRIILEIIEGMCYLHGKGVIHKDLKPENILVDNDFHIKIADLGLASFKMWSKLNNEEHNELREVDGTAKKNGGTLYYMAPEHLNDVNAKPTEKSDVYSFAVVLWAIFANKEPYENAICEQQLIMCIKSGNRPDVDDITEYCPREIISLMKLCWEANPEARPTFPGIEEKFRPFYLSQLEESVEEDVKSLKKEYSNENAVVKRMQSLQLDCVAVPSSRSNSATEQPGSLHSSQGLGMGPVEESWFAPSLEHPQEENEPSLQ
In words: Human RIPK1 enzyme inhibitory effect (ADP-Glo Kinase Assay). In kind it is biochemical. The following applies: 10 μM test compound; well without enzyme = 100% inhibition; 10 µM. The procedure, abridged: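 Human RIPK1 (1-375), GST-purified from Sf-9 cells, preincubated 20 min at room temperature with compound in 25 mM HEPES pH 7.5, 10 mM MgCl2, 0.01% Tween-20, 2 mM DTT. Reaction started with 0.6 mM ATP solution (stock), run 120 min at room temperature. ADP measured by ADP-Glo luminescence.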
A general note: ADP-Glo turns the ADP formed in a reaction into a luminescent signal.
With `CN1C(=O)C(N2CCc3c(nn(Cc4ccccc4)c3Cl)C2=O)CCc2ncccc21` (stereo not drawn) [Example 66, 7-(2-benzyl-3-chloro-7-oxo-2,4,5,7-tetrahydro-6H-pyrazolo[3,4-c]pyridin-6-yl)-5-methyl-5,7,8,9-tetrahydro-6H-pyrido[3,2-b]azepin-6-one (optical isomer)], the “human RIPK1 enzyme inhibitory effect at 10 μM (% inhibition)” value is 100%.

Take `CN1C(=O)C(N2CCc3c(nn(Cc4ccccc4)c3Cl)C2=O)CCc2ccncc21` (centres unmarked) [Example 102, 3-(2-benzyl-3-chloro-7-oxo-2,4,5,7-tetrahydro-6H-pyrazolo[3,4-c]pyridin-6-yl)-1-methyl-1,3,4,5-tetrahydro-2H-pyrido[3,4-b]azepin-2-one]: the “human RIPK1 enzyme inhibitory effect at 10 μM (% inhibition)” value is reported as 88%.

Still in this assay, the particulars now being: read-out: human RIPK1 enzyme inhibitory effect at 10 μM (% inhibition), 10 μM test compound; well without enzyme = 100% inhibition.
With `CN1C(=O)[C@@H](N2CCc3c(nn(Cc4ccccc4)c3Cl)C2=O)COc2cc(-c3ccn(C)n3)c(F)cc21` [Example 125, (3S)-3-(2-benzyl-3-chloro-7-oxo-2,4,5,7-tetrahydro-6H-pyrazolo[3,4-c]pyridin-6-yl)-7-fluoro-5-methyl-8-(1-methyl-1H-pyrazol-3-yl)-2,3-dihydro-1,5-benzoxazepin-4(5H)-one], the inhibition at 10 µM stood at 101%.

As to `CN1C(=O)[C@@H](N2CCc3cn(Cc4ncco4)nc3C2=O)COc2ccccc21` [Example 35, (3S)-5-methyl-3-(2-(1,3-oxazol-2-ylmethyl)-7-oxo-2,4,5,7-tetrahydro-6H-pyrazolo[3,4-c]pyridin-6-yl)-2,3-dihydro-1,5-benzoxazepin-4(5H)-one], the inhibition at 10 µM turned out to be 96%.

Take `CN1C(=O)C(N2CCc3c(nn(Cc4ccccc4F)c3Cl)C2=O)CCc2ccncc21` (centres unmarked) [Example 103, 3-(3-chloro-2-(2-fluorobenzyl)-7-oxo-2,4,5,7-tetrahydro-6H-pyrazolo[3,4-c]pyridin-6-yl)-1-methyl-1,3,4,5-tetrahydro-2H-pyrido[3,4-b]azepin-2-one]: the inhibition at 10 µM was determined as 99%.

With `COc1cccc(Cn2cc3c(n2)C(=O)N([C@H]2COc4ccccc4N(C)C2=O)CC3)c1` [Example 155, (3S)-3-(2-(3-methoxybenzyl)-7-oxo-2,4,5,7-tetrahydro-6H-pyrazolo[3,4-c]pyridin-6-yl)-5-methyl-2,3-dihydro-1,5-benzoxazepin-4(5H)-one], the inhibition at 10 µM turned out to be 97%.

For `CN1C(=O)[C@@H](N2CCc3c(nn(Cc4ccccc4)c3Cl)C2=O)COc2ccccc21` [Example 76, (3S)-3-(2-benzyl-3-chloro-7-oxo-2,4,5,7-tetrahydro-6H-pyrazolo[3,4-c]pyridin-6-yl)-5-methyl-2,3-dihydro-1,5-benzoxazepin-4(5H)-one], the inhibition at 10 µM is 97%.

Regarding `CN1C(=O)[C@@H](N2CCc3cn(Cc4cnccn4)nc3C2=O)COc2ccccc21` [Example 42, (3S)-5-methyl-3-(7-oxo-2-(pyrazin-2-ylmethyl)-2,4,5,7-tetrahydro-6H-pyrazolo[3,4-c]pyridin-6-yl)-2,3-dihydro-1,5-benzoxazepin-4(5H)-one], the inhibition at 10 µM was 99%.

As for `CN1C(=O)[C@@H](N2CCc3c(nn(Cc4ccccc4)c3Cl)C2=O)COc2cc(N3CCOCC3)ccc21` [Example 142, (3S)-3-(2-benzyl-3-chloro-7-oxo-2,4,5,7-tetrahydro-6H-pyrazolo[3,4-c]pyridin-6-yl)-5-methyl-8-(morpholin-4-yl)-2,3-dihydro-1,5-benzoxazepin-4(5H)-one], the inhibition at 10 µM was found to be 100%.

Regarding `CN1C(=O)[C@@H](N2CCc3cn(CC4COCCO4)nc3C2=O)COc2ccccc21` (stereo partly drawn) [Example 38, (3S)-3-(2-(1,4-dioxan-2-ylmethyl)-7-oxo-2,4,5,7-tetrahydro-6H-pyrazolo[3,4-c]pyridin-6-yl)-5-methyl-2,3-dihydro-1,5-benzoxazepin-4(5H)-one], the inhibition at 10 µM stood at 96%.

For the compound `Cc1nccnc1Cn1nc2c(c1Cl)CCN([C@H]1COc3ccccc3N(C)C1=O)C2=O` [Example 73, (3S)-3-(3-chloro-2-((3-methylpyrazin-2-yl)methyl)-7-oxo-2,4,5,7-tetrahydro-6H-pyrazolo[3,4-c]pyridin-6-yl)-5-methyl-2,3-dihydro-1,5-benzoxazepin-4(5H)-one], the inhibition at 10 µM was 91%.

The term inhibition denotes the relative decrease from the control value, in per cent.
